Patent US8785630B2, “Insecticidal triazines and pyrimidines” (Vestaron Corporation, priority 2011, dated 2014)

test system: beet armyworm (Spodoptera exigua); assay: Insecticidal test for beet armyworm, treated diet surface; assay type: in vivo; conditions: 100 μg/cm^2 on diet surface, first instar larvae, 32 insects per treatment, observations 24, 48 and 96 hours
Experimental: The compounds identified in Table 8 were prepared according to the previous methods and were tested against beet armyworm and corn earworm as follows:
Insecticidal Test for Beet Armyworm (Spodoptera exigua).
To prepare the test solution, the test compound was Formulated at 3499 ppm in solution as 5 mg compound/1.429 mL of 9 parts acetone: 1 part deionized H2O and vortexed to homogenize. 50 μL of the 3499 ppm (equivalent to 100 μg/cm^2 dose on diet surface area) test solution was pipetted upon the surface of 1 mL of solidified cool Southland Products Incorporated Beet Armyworm Diet (201 Stuart Island Road Lake Village, Ark. 71653) using an Eppendorf Repeater Plus with a 1 mL pipette tip. All pipetting of treatments was done in a Labconco Hood. Thirty minutes were allowed for the acetone to evaporate leaving a dose of 100 μg/cm^2 on the surface of the artificial diet. Two 24 hour old first instar Beet Armyworm (Spodoptera Exigua) larvae were placed in each well of the 128 well Bio-BA 128 Bioassay trays (CD International, Pitman, N.J., 08071, USA) using a #0 fine camel hair paint brush. Bioassay trays were sectioned into treatment groups of 8 with 16 replicates per treatment group (32 insects per treatment). Trays containing the treated diet and larvae were covered with a Bio-CV-16 cover (CD International, Pitman, N.J., 08071, USA) and then placed on a rack under florescent lights at 27° C., 20% relative humidity (RH) in the room, and 16 hr light: 8 hr dark for 96 hours. Observations were made 24, 48 and 96 hours after treatment and infestation. The number of insects dead were counted out of the 32 insects total per treatment and the results are given in a table as a percent mortality at a dose of 100 μg/cm^2. When finished, the tray was moved to the −5° C. freezer and left for 24 hr to insure mortality of the remaining S. exigua. After 24 hours, dispose of entire tray into waste bin.
Keys to the table: Mortality refers to activity against beet army worm (Spodoptera exigua) as defined above at the concentration of 100 μg/cm^2 (A=76-100% mortality, B=51-75% mortality, C=26-50% mortality and D=0-25% mortality).

Structure (SMILES)	mortality at 100 µg/cm2
Fc1cccc(-c2nc(NN=Cc3ccc(OC(F)(F)F)cc3)nc(Nc3ccc(Cl)cc3)n2)c1 [Example 31, N-(4-chlorophenyl)-4-(3-fluorophenyl)-6-(2-(4-(trifluoromethoxy)benzylidene)hydrazinyl)-1,3,5-triazin-2-amine]	51 to 75%
COc1ccc(C=NNc2nc(Nc3ccc(Cl)nc3)nc(-c3c(F)cccc3Cl)n2)cc1 [Example 54, 4-(2-chloro-6-fluorophenyl)-N-(6-chloropyridin-3-yl)-6-(2-(4-methoxybenzylidene)hydrazinyl)-1,3,5-triazin-2-amine]	76 to 100%
Fc1ccccc1-c1nc(NN=Cc2ccc(OC(F)(F)F)cc2)nc(Nc2ccc(Cl)cc2)n1 [Example 44, N-(4-chlorophenyl)-4-(2-fluorophenyl)-6-(2-(4-(trifluoromethoxy)benzylidene)hydrazinyl)-1,3,5-triazin-2-amine]	76 to 100%
FC(F)(F)Oc1ccc(C=NNc2nc(NCc3ccc(Cl)nc3)cc(-c3ccccc3)n2)cc1 [Example 56, N-((6-chloropyridin-3-yl)methyl)-6-phenyl-2-(2-(4-(trifluoromethoxy)benzylidene)hydrazinyl)pyrimidin-4-amine]	76 to 100%
Fc1cccc(F)c1-c1nc(NN=Cc2ccc(OC(F)(F)C(F)F)cc2)nc(Nc2ccc(Cl)cc2)n1 [Example 10, N-(4-chlorophenyl)-4-(2,6-difluorophenyl)-6-(2-(4-(1,1,2,2-tetrafluoroethoxy)benzylidene)hydrazinyl)-1,3,5-triazin-2-amine]	76 to 100%
Fc1cccc(Cl)c1-c1cc(Nc2ccc(Cl)cc2)nc(NN=Cc2ccc(OC(F)(F)F)cc2)n1 [Example 52, 6-(2-chloro-6-fluorophenyl)-N-(4-chlorophenyl)-2-(2-(4-(trifluoromethoxy)benzylidene)hydrazinyl)pyrimidin-4-amine]	76 to 100%
Fc1cccc(F)c1-c1nc(NN=Cc2ccc(OC(F)(F)F)cc2)nc(Nc2ccc(Cl)nc2)n1 [Example 9, N-(6-chloropyridin-3-yl)-4-(2,6-difluorophenyl)-6-(2-(4-(trifluoromethoxy)benzylidene)hydrazinyl)-1,3,5-triazin-2-amine]	76 to 100%
Fc1cc(C=NNc2nc(Nc3ccc(Cl)nc3)nc(-c3c(F)cccc3Cl)n2)ccc1C(F)(F)F [Example 55, 4-(2-chloro-6-fluorophenyl)-N-(6-chloropyridin-3-yl)-6-(2-(3-fluoro-4-(trifluoromethyl)benzylidene)hydrazinyl)-1,3,5-triazin-2-amine]	76 to 100%
CCCC=NNc1nc(Nc2ccc(Cl)cc2)nc(-c2c(F)cccc2Cl)n1 [Example 19, 4-(2-butylidenehydrazinyl)-6-(2-chloro-6-fluorophenyl)-N-(4-chlorophenyl)-1,3,5-triazin-2-amine]	76 to 100%
Fc1cccc(F)c1-c1nc(NN=Cc2ccc(OC(F)(F)C(F)F)cc2)nc(Nc2ccc(Cl)nc2)n1 [Example 15, N-(6-chloropyridin-3-yl)-4-(2,6-difluorophenyl)-6-(2-(4-(1,1,2,2-tetrafluoroethoxy)benzylidene)hydrazinyl)-1,3,5-triazin-2-amine]	76 to 100%
Fc1cccc(Cl)c1-c1nc(NN=Cc2ccc(OC(F)(F)C(F)F)cc2)nc(Nc2ccc(Cl)nc2)n1 [Example 12, 4-(2-chloro-6-fluorophenyl)-N-(6-chloropyridin-3-yl)-6-(2-(4-(1,1,2,2-tetrafluoroethoxy)benzylidene)hydrazinyl)-1,3,5-triazin-2-amine]	76 to 100%
Fc1cccc(Cl)c1-c1nc(NN=Cc2ccc(OC(F)(F)F)cc2)nc(Nc2ccc(Cl)cn2)n1 [Example 45, 4-(2-chloro-6-fluorophenyl)-N-(5-chloropyridin-2-yl)-6-(2-(4-(trifluoromethoxy)benzylidene)hydrazinyl)-1,3,5-triazin-2-amine]	26 to 50%
FC(F)(F)Oc1ccc(C=NNc2nc(Nc3ccc(Cl)cc3)cc(-c3ccccc3)n2)cc1 [Example 57, N-(4-chlorophenyl)-6-phenyl-2-(2-(4-(trifluoromethoxy)benzylidene)hydrazinyl)pyrimidin-4-amine]	76 to 100%
NCCNc1nc(NN=Cc2ccc(OC(F)(F)F)cc2)nc(-c2c(F)cccc2Cl)n1 [Example 28, N1-(4-(2-chloro-6-fluorophenyl)-6-(2-(4-(trifluoromethoxy)benzylidene)hydrazinyl)-1,3,5-triazin-2-yl)ethane-1,2-diamine]	0 to 25%
Fc1cccc(Cl)c1-c1nc(NCc2ccc(Cl)cc2)nc(NN=Cc2ccc(OC(F)(F)F)cc2)n1 [Example 60, 4-(2-chloro-6-fluorophenyl)-N-(4-chlorobenzyl)-6-(2-(4-(trifluoromethoxy)benzylidene)hydrazinyl)-1,3,5-triazin-2-amine]	76 to 100%
FC(F)(F)Oc1ccc(C=NNc2cc(Nc3ccc(Cl)cc3)nc(-c3ccccc3)n2)cc1 [Example 46, N-(4-chlorophenyl)-2-phenyl-6-(2-(4-(trifluoromethoxy)benzylidene)hydrazinyl)pyrimidin-4-amine]	76 to 100%
Fc1ccc(Nc2nc(NN=Cc3ccc(OC(F)(F)F)cc3)nc(-c3c(F)cccc3F)n2)cc1C(F)(F)F [Example 5, 4-(2,6-difluorophenyl)-N-(4-fluoro-3-(trifluoromethyl)phenyl)-6-(2-(4-(trifluoromethoxy)benzylidene)hydrazinyl)-1,3,5-triazin-2-amine]	26 to 50%
Oc1ccc(C=NNc2nc(Nc3ccc(Cl)nc3)nc(-c3c(F)cccc3Cl)n2)cc1 [Example 50]	0 to 25%
CN(C)Nc1nc(NN=Cc2ccc(OC(F)(F)F)cc2)nc(-c2c(F)cccc2Cl)n1 [Example 25, 2-(2-chloro-6-fluorophenyl)-4-(2,2-dimethylhydrazinyl)-6-(2-(4-(trifluoromethoxy)benzylidene)hydrazinyl)-1,3,5-triazine]	76 to 100%
Fc1cccc(Cl)c1-c1nc(NN=Cc2ccc(OC(F)(F)C(F)Cl)cc2)nc(Nc2ccc(Cl)nc2)n1 (stereo not shown) [Example 36, 4-(2-(4-(2-chloro-1,1,2-trifluoroethoxy)benzylidene)hydrazinyl)-6-(2-chloro-6-fluorophenyl)-N-(6-chloropyridin-3-yl)-1,3,5-triazin-2-amine]	76 to 100%
Cc1ccc(Nc2nc(NN=Cc3ccc(OC(F)(F)F)cc3)nc(-c3c(F)cccc3Cl)n2)cc1 [Example 23, 4-(2-chloro-6-fluorophenyl)-N-(p-tolyl)-6-(2-(4-(trifluoromethoxy)benzylidene)hydrazinyl)-1,3,5-triazin-2-amine]	76 to 100%
FC(F)(F)Oc1ccc(C=NNc2cc(-c3ccccc3)nc(Nc3ccc(Cl)cc3)n2)cc1 [Example 58, N-(4-chlorophenyl)-4-phenyl-6-(2-(4-(trifluoromethoxy)benzylidene)hydrazinyl)pyrimidin-2-amine]	76 to 100%
FC(F)(F)Oc1ccc(C=NNc2nc(Nc3ccc(Cl)nc3)cc(-c3ccccc3)n2)cc1 [Example 47, N-(6-chloropyridin-3-yl)-6-phenyl-2-(2-(4-(trifluoromethoxy)benzylidene)hydrazinyl)pyrimidin-4-amine]	0 to 25%
Fc1cccc(Cl)c1-c1nc(NN=Cc2ccc(OC(F)(F)F)cc2)nc(Nc2cc(Cl)cc(Cl)c2)n1 [Example 39, 4-(2-chloro-6-fluorophenyl)-N-(3,5-dichlorophenyl)-6-(2-(4-(trifluoromethoxy)benzylidene)hydrazinyl)-1,3,5-triazin-2-amine]	76 to 100%
CCc1ccc(C=NNc2nc(Nc3ccc(Cl)cc3)nc(-c3c(F)cccc3Cl)n2)cc1 [Example 17, 4-(2-chloro-6-fluorophenyl)-N-(4-chlorophenyl)-6-(2-(4-ethylbenzylidene)hydrazinyl)-1,3,5-triazin-2-amine]	76 to 100%
CNc1nc(NN=Cc2ccc(OC(F)(F)F)cc2)nc(-c2c(F)cccc2Cl)n1 [Example 43, 4-(2-chloro-6-fluorophenyl)-N-methyl-6-(2-(4-(trifluoromethoxy)benzylidene)hydrazinyl)-1,3,5-triazin-2-amine]	76 to 100%
FC(F)(F)Oc1ccc(C=NNc2nc(Nc3ccc(Cl)cc3)nc(-c3ccccc3)n2)cc1 [Example 2, N-(4-chlorophenyl)-4-phenyl-6-(2-(4-(trifluoromethoxy)benzylidene)hydrazinyl)-1,3,5-triazin-2-amine]	76 to 100%
Fc1cccc(Cl)c1-c1nc(NN=Cc2ccc(OC(F)(F)F)cc2)nc(Nc2ccnc(Cl)c2)n1 [Example 40, 4-(2-chloro-6-fluorophenyl)-N-(2-chloropyridin-4-yl)-6-(2-(4-(trifluoromethoxy)benzylidene)hydrazinyl)-1,3,5-triazin-2-amine]	26 to 50%
